These are literature values, as cited in patent US20040235767A1, “Anti-angiogenic and immunotherapeutic compositions for cancer treatment” (priority 2004, published 2004).

This series deals with large tumours. Conditions: previously reported.

On to `Cc1ccc2c(=O)c3cccc(CC(=O)O)c3oc2c1C` [DMXAA, 5,6-dimethylxanthenone-4-acetic acid], for which the “effect on large tumours in combination with B7-1-mediated immunotherapy” value is “eradication of large tumours”.
